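Following 48 hours of exposure in 96-well plates, responses at five concentrations were used to interpolate endpoints linearly. At the TGI there is no net growth.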

What all share (test): NCI anticancer screen, dose series, 48 h
The test system of assay [1] is A549 NSCLC.
The subject of assay [2] is HOP-92 NSCLC.
In assay [3] the test system is SF-539 CNS.
The test system of assay [4] is CAKI-1 renal.
Assay [5] relates to NCI-H23 lung.
The test system of assay [6] is NCI-H460 lung.
For assay [7], the system named is COLO 205 colon.
The test system of assay [8] is HL-60(TB) leukemia.
The subject of assay [9] is ACHN renal.

`COc1cc(C[P+](c2ccccc2)(c2ccccc2)c2ccccc2)cc(OC)c1OC`: the TGI in [1], in assay [2], in assay [3], in assay [4], in [5] and in [6] was more than 100 µM in each case. The TGI in [7], in [8] and in assay [9] was more than 100 µM throughout.

Take `O=C1C=C(Nc2ccc(Cl)cc2C(=O)c2ccccc2)c2ccccc2C1=O`: the TGI in assay [1], in [3], in assay [4], in [5], in assay [6] and in assay [7] was more than 100 µM in each case. In addition, the TGI in assay [8] and in [9] was more than 100 µM throughout.

In the case of `COC(=N)c1csc(C2OC(CO)C(O)C2O)n1` (stereo not drawn), the TGI in [1], in assay [2], in [3], in [4], in assay [5] and in assay [6] was more than 100 µM in each case. Further, the TGI in assay [7], in [8] and in [9] was more than 100 µM in each case.

`CCCN(CCC)c1c([N+](=O)[O-])cc(C(=O)N(CC)CC)cc1[N+](=O)[O-]`: the TGI in [1] was 38.1 µM; in [3] it was 58.3 µM; in assay [4], more than 100 µM; in assay [5] it was 40.8 µM; in assay [6], 60.2 µM; in assay [7], 32.7 µM. Moreover, the TGI in [8] was 50.8 µM; in assay [9] it was more than 100 µM.

`CCOC(=O)C(Br)=C1OC(=O)c2ccccc2-c2ccccc21` (mixture of isomers): the TGI in assay [1] is more than 100 µM; in [2], 29.5 µM; in assay [3] it was 46.8 µM; in [4] it was 32.7 µM; in [5], 48 µM; in [7] it was 32.9 µM. Besides, the values for the TGI in assay [8] and in assay [9] were 35 µM and 29 µM, respectively.

For the compound `COCOCCC#CCO`, the TGI in [1], in assay [2], in assay [3], in assay [5], in [6] and in assay [8] was more than 100 µM in each case. In [9], this compound registered a TGI of more than 100 µM.

As for `Cc1cc2c(cc1C)[n+](=O)cc(C(=O)C/C(=N/NC(=S)NN)C(=O)Nc1cccc(C(F)(F)F)c1)n2[O-]`, the TGI in [1], in assay [2], in assay [3], in assay [4], in assay [5] and in assay [6] was more than 100 µM each time. Moreover, the TGI in [7], in assay [8] and in assay [9] was more than 100 µM each time.

In the case of `FC(F)(F)c1ccc2nc(NCc3ccccc3)c(-c3ccccc3)nc2c1`, the TGI in assay [1] is more than 100 µM; in [2], 17.9 µM; in assay [3], more than 100 µM; in assay [5], more than 100 µM; in [6], more than 100 µM; in assay [7], more than 100 µM. Moreover, the TGI in [8] was 48.9 µM; in assay [9], more than 100 µM.

As for `O=C(c1ccc([N+](=O)[O-])cc1[N+](=O)[O-])N(/N=C/C=C/c1ccccc1)c1nnc(-c2ccccc2)c(-c2ccccc2)n1`, the TGI in assay [1] was more than 100 µM; in assay [2], 51.2 µM; in assay [3], 30.1 µM; in assay [4] it was 79.6 µM; in [5] it was 93.2 µM; in [6], more than 100 µM. In addition, the figures for the TGI in assay [7], in assay [8] and in assay [9] were more than 100 µM, 51.6 µM and 78.1 µM, respectively.

`Oc1oc(C(=C2N=c3ccccc3=N2)c2ccc(Cl)cc2)c(O)c1-c1ccc(Cl)cc1`: the TGI in assay [1] was more than 100 µM; in [2], 4.47 µM; in assay [3], 9.91 µM; in assay [4], 7.14 µM; in [5], 4.34 µM; in assay [6], more than 100 µM. Besides, the figures for the TGI in assay [7], in assay [8] and in assay [9] were 3.01 µM, 5.02 µM and 14.7 µM, respectively.

With `CC1=C(C(=O)Nc2ccccc2)C(c2ccc(Cl)c(Cl)c2)C(C(=O)Nc2ccccc2)=C(C)N1`, the TGI in assay [1] was 25.3 µM; in [3], 32.3 µM; in assay [5], 27 µM; in assay [6], 31.2 µM; in assay [7], 29.4 µM; in [9] it was 24.9 µM.

Regarding `CC(C)C1CN(C(=O)OCc2ccccc2)C2N1C(=O)C2(C)OCc1ccccc1` (stereo not drawn), the TGI in assay [1] is more than 100 µM; in [3] it was more than 100 µM; in assay [5], more than 100 µM; in assay [6], more than 100 µM; in assay [7], 37.2 µM; in [8], 66.9 µM. This compound gave a TGI in assay [9] of more than 100 µM.

For `CCOC(=O)Cc1csc(Nc2ccccc2[N+](=O)[O-])n1`, the TGI in assay [1], in assay [2], in [3], in assay [4], in assay [5] and in assay [6] was more than 100 µM throughout. In addition, the TGI in [7], in assay [8] and in assay [9] was more than 100 µM in each case.

Turning to `CC12c3ccccc3C(OC=O)(c3ccccc31)C1(C)c3ccccc3C2(OC=O)c2ccccc21`, the TGI in assay [1], in assay [2], in assay [4], in assay [5], in assay [6] and in assay [7] was more than 100 µM throughout. Moreover, the TGI in [8] and in [9] was more than 100 µM throughout.

On to `O=c1[nH]c(=O)n(C2CC(O)C(CO)O2)cc1OS(=O)(=O)C(F)(F)F` (stereo not drawn), for which the TGI in assay [1], in assay [2], in assay [3], in [4], in assay [5] and in [6] was more than 100 µM in each case. For the same compound, the TGI in assay [7], in [8] and in assay [9] was more than 100 µM throughout.

Source of the values: PubChem BioAssay (NCI).
